Data from the supplement of paper PMC10733146.

What was measured:
Test in all cases: viability relative to DMSO control (fraction); higher = less drug effect (more viable cells)
Settings in all cases: 48 h
[1] = test system: primary AML patient cells (S037)
In short: (§1)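 Compounds were pre-plated at five concentrations, one well each, in 384-well plates, and primary mononuclear tumour cells were plated on them at 4 × 10^4 cells per well. The cells, fresh or cryopreserved, had been Ficoll-isolated from blood or bone marrow or taken from processed lymph node. After 48 h at 37 °C and 5% CO2 in RPMI-1640 with penicillin/streptomycin, L-glutamine and human serum, viability was read as CellTiter-Glo luminescence relative to the median of 16 inner DMSO wells.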

[2] = test system: primary ALL patient cells (S088)
In short: as §1

[3] = test system: primary AML patient cells (S085)
In short: as §1

[4] = test system: primary CLL patient cells (S031)
In short: as §1

[5] = test system: primary B-PLL patient cells (S016)
In short: as §1

[6] = test system: primary DLBCL patient cells (S082)
In short: as §1

[7] = test system: primary AML patient cells (S060)
In short: as §1

[8] = test system: primary AML patient cells (S019)
In short: as §1

[9] = test system: primary DLBCL patient cells (S076)
In short: as §1

[10] = test system: primary T-NHL patient cells (S058)
In short: as §1

[11] = test system: primary AML patient cells (S011)
In short: as §1

[12] = test system: primary AML patient cells (S071)
In short: as §1

[13] = test system: primary FL patient cells (S087)
In short: as §1

[14] = test system: primary DLBCL patient cells (S049)
In short: as §1

[15] = test system: primary AML patient cells (S091)
In short: as §1

[16] = test system: primary MCL patient cells (S041)
In short: as §1

[17] = test system: primary AML patient cells (S089)
In short: as §1

For `CO[C@H]1C[C@@H]2CC[C@@H](C)[C@@](O)(O2)C(=O)C(=O)N2CCCC[C@H]2C(=O)O[C@H]([C@H](C)C[C@@H]2CC[C@@H](OC(=O)C(C)(CO)CO)[C@H](OC)C2)CC(=O)[C@H](C)/C=C(\C)[C@@H](O)[C@@H](OC)C(=O)[C@H](C)C[C@H](C)/C=C/C=C/C=C/1C` [Temsirolimus], the viability ([1]; 0.032 µM) was 0.966, the viability ([1]; 0.16 µM) was 0.903 and the viability ([1]; 0.8 µM) was 0.957. The viability ([1]; 4 µM) was 0.931, the viability ([1]; 20 µM) was 0.807 and the viability ([2]; 0.032 µM) was 0.737. The viability ([2]; 0.16 µM) was 0.688, the viability ([2]; 0.8 µM) was 0.693 and the viability ([2]; 4 µM) was 0.703. For the same compound, the viability ([2]; 20 µM) was 0.576, the viability ([3]; 0.032 µM) was 0.852 and the viability ([3]; 0.16 µM) was 0.752. The viability ([3]; 0.8 µM) was 0.918, the viability ([3]; 4 µM) was 0.79 and the viability ([3]; 20 µM) was 0.58. It also gave a viability ([4]; 0.032 µM) of 0.795, a viability ([4]; 0.16 µM) of 0.708 and a viability ([4]; 0.8 µM) of 0.8. For the same compound, the viability ([4]; 4 µM) was 0.831, the viability ([4]; 20 µM) was 0.701 and the viability ([5]; 0.032 µM) was 0.618. It also gave a viability ([5]; 0.16 µM) of 0.598, a viability ([5]; 0.8 µM) of 0.653 and a viability ([5]; 4 µM) of 0.614. The viability ([5]; 20 µM) was 0.561, the viability ([6]; 0.032 µM) was 0.794 and the viability ([6]; 0.16 µM) was 0.759. For the same compound, the viability ([6]; 0.8 µM) was 0.776, the viability ([6]; 4 µM) was 0.804 and the viability ([6]; 20 µM) was 0.748. It also gave a viability ([7]; 0.032 µM) of 1.05, a viability ([7]; 0.16 µM) of 1.04 and a viability ([7]; 0.8 µM) of 1.04. For the same compound, the viability ([7]; 4 µM) was 1.06, the viability ([7]; 20 µM) was 1 and the viability ([8]; 0.032 µM) was 0.909. For the same compound, the viability ([8]; 0.16 µM) was 0.834, the viability ([8]; 0.8 µM) was 0.915 and the viability ([8]; 4 µM) was 0.873. It also gave a viability ([8]; 20 µM) of 0.739, a viability ([9]; 0.032 µM) of 0.821 and a viability ([9]; 0.16 µM) of 0.753. For the same compound, the viability ([9]; 0.8 µM) was 0.805, the viability ([9]; 4 µM) was 0.765 and the viability ([9]; 20 µM) was 0.616. For the same compound, the viability ([10]; 0.032 µM) was 0.902, the viability ([10]; 0.16 µM) was 0.809 and the viability ([10]; 0.8 µM) was 0.904. It also gave a viability ([10]; 4 µM) of 0.873, a viability ([10]; 20 µM) of 0.697 and a viability ([11]; 0.032 µM) of 0.88. It also gave a viability ([11]; 0.16 µM) of 0.805, a viability ([11]; 0.8 µM) of 0.892 and a viability ([11]; 4 µM) of 0.84. It also gave a viability ([11]; 20 µM) of 0.498, a viability ([12]; 0.032 µM) of 0.837 and a viability ([12]; 0.16 µM) of 0.761. It also gave a viability ([12]; 0.8 µM) of 0.723, a viability ([12]; 4 µM) of 0.646 and a viability ([12]; 20 µM) of 0.407. The viability ([13]; 0.032 µM) was 0.833, the viability ([13]; 0.16 µM) was 0.813 and the viability ([13]; 0.8 µM) was 0.84. For the same compound, the viability ([13]; 4 µM) was 0.82, the viability ([13]; 20 µM) was 0.713 and the viability ([14]; 0.032 µM) was 1.02. It also gave a viability ([14]; 0.16 µM) of 0.986, a viability ([14]; 0.8 µM) of 0.987 and a viability ([14]; 4 µM) of 0.966. The viability ([14]; 20 µM) was 0.794, the viability ([15]; 0.032 µM) was 0.697 and the viability ([15]; 0.16 µM) was 0.686. It also gave a viability ([15]; 0.8 µM) of 0.659, a viability ([15]; 4 µM) of 0.663 and a viability ([15]; 20 µM) of 0.611. For the same compound, the viability ([16]; 0.032 µM) was 0.853, the viability ([16]; 0.16 µM) was 0.829 and the viability ([16]; 0.8 µM) was 0.858. The viability ([16]; 4 µM) was 0.848, the viability ([16]; 20 µM) was 0.768 and the viability ([17]; 0.032 µM) was 0.752. The viability ([17]; 0.16 µM) was 0.831, the viability ([17]; 0.8 µM) was 0.673 and the viability ([17]; 4 µM) was 0.684. The viability ([17]; 20 µM) was 0.719.

`O=C(c1cc(Cc2n[nH]c(=O)c3ccccc23)ccc1F)N1CCN(C(=O)C2CC2)CC1` [Olaparib] gave a viability ([1]; 0.024 µM) of 0.853, a viability ([1]; 0.12 µM) of 0.895 and a viability ([1]; 0.6 µM) of 0.915. For the same compound, the viability ([1]; 3 µM) was 0.859, the viability ([1]; 15 µM) was 0.776 and the viability ([2]; 0.024 µM) was 0.579. It also gave a viability ([2]; 0.12 µM) of 0.775, a viability ([2]; 0.6 µM) of 0.788 and a viability ([2]; 3 µM) of 0.821. The viability ([2]; 15 µM) was 0.787, the viability ([3]; 0.024 µM) was 0.861 and the viability ([3]; 0.12 µM) was 0.866. The viability ([3]; 0.6 µM) was 0.988, the viability ([3]; 3 µM) was 0.793 and the viability ([3]; 15 µM) was 0.992. The viability ([4]; 0.024 µM) was 0.814, the viability ([4]; 0.12 µM) was 0.89 and the viability ([4]; 0.6 µM) was 0.913. For the same compound, the viability ([4]; 3 µM) was 0.829, the viability ([4]; 15 µM) was 0.854 and the viability ([5]; 0.024 µM) was 0.86. The viability ([5]; 0.12 µM) was 0.871, the viability ([5]; 0.6 µM) was 0.872 and the viability ([5]; 3 µM) was 0.8. It also gave a viability ([5]; 15 µM) of 0.722, a viability ([6]; 0.024 µM) of 0.835 and a viability ([6]; 0.12 µM) of 0.887. For the same compound, the viability ([6]; 0.6 µM) was 0.878, the viability ([6]; 3 µM) was 0.817 and the viability ([6]; 15 µM) was 0.718. It also gave a viability ([7]; 0.024 µM) of 0.947, a viability ([7]; 0.12 µM) of 0.926 and a viability ([7]; 0.6 µM) of 0.979. It also gave a viability ([7]; 3 µM) of 0.973, a viability ([7]; 15 µM) of 0.987 and a viability ([8]; 0.024 µM) of 0.851. For the same compound, the viability ([8]; 0.12 µM) was 0.939, the viability ([8]; 0.6 µM) was 0.91 and the viability ([8]; 3 µM) was 0.889. The viability ([8]; 15 µM) was 0.893, the viability ([9]; 0.024 µM) was 0.91 and the viability ([9]; 0.12 µM) was 1.05. For the same compound, the viability ([9]; 0.6 µM) was 1.12, the viability ([9]; 3 µM) was 1 and the viability ([9]; 15 µM) was 0.955. It also gave a viability ([10]; 0.024 µM) of 1.09, a viability ([10]; 0.12 µM) of 1.11 and a viability ([10]; 0.6 µM) of 1.18. For the same compound, the viability ([10]; 3 µM) was 1.13, the viability ([10]; 15 µM) was 0.999 and the viability ([11]; 0.024 µM) was 0.832. It also gave a viability ([11]; 0.12 µM) of 0.871, a viability ([11]; 0.6 µM) of 0.873 and a viability ([11]; 3 µM) of 0.799. For the same compound, the viability ([11]; 15 µM) was 0.603, the viability ([12]; 0.024 µM) was 0.974 and the viability ([12]; 0.12 µM) was 1.01. The viability ([12]; 0.6 µM) was 1.02, the viability ([12]; 3 µM) was 0.917 and the viability ([12]; 15 µM) was 0.806. The viability ([13]; 0.024 µM) was 0.882, the viability ([13]; 0.12 µM) was 0.916 and the viability ([13]; 0.6 µM) was 0.911. For the same compound, the viability ([13]; 3 µM) was 0.912, the viability ([13]; 15 µM) was 0.845 and the viability ([14]; 0.024 µM) was 0.857. The viability ([14]; 0.12 µM) was 0.937, the viability ([14]; 0.6 µM) was 0.92 and the viability ([14]; 3 µM) was 0.894. The viability ([14]; 15 µM) was 0.735, the viability ([15]; 0.024 µM) was 0.857 and the viability ([15]; 0.12 µM) was 0.796. For the same compound, the viability ([15]; 0.6 µM) was 0.883, the viability ([15]; 3 µM) was 0.862 and the viability ([15]; 15 µM) was 0.691. It also gave a viability ([16]; 0.024 µM) of 0.845, a viability ([16]; 0.12 µM) of 0.889 and a viability ([16]; 0.6 µM) of 0.93. The viability ([16]; 3 µM) was 0.933, the viability ([16]; 15 µM) was 0.895 and the viability ([17]; 0.024 µM) was 0.959. The viability ([17]; 0.12 µM) was 0.82, the viability ([17]; 0.6 µM) was 0.883 and the viability ([17]; 3 µM) was 0.63. For the same compound, the viability ([17]; 15 µM) was 0.814.
